Reference: article PMC4620497 (Scientific Reports, 2015)

Experiments:
[1] = target: T1, RET(V804M) (Homo sapiens, UniProt P07949, V804M); experiment: KINOMEscan panel screen; type: binding; conditions: read-out: Percent Control(%)
T1 construct: purchased DiscoveRx KINOMEscan (Ambit Biosciences)

[2] = target: T2, AKT1 (Homo sapiens, UniProt P31749); experiment: KINOMEscan panel screen; type: binding; conditions: read-out: Percent Control(%)
T2 construct: purchased DiscoveRx KINOMEscan (Ambit Biosciences)

[3] = target: T3, EPHA5 (Homo sapiens, UniProt P54756); experiment: KINOMEscan panel screen; type: binding; conditions: read-out: Percent Control(%)
T3 construct: purchased DiscoveRx KINOMEscan (Ambit Biosciences)
T3 sequence (P54756 25-1037): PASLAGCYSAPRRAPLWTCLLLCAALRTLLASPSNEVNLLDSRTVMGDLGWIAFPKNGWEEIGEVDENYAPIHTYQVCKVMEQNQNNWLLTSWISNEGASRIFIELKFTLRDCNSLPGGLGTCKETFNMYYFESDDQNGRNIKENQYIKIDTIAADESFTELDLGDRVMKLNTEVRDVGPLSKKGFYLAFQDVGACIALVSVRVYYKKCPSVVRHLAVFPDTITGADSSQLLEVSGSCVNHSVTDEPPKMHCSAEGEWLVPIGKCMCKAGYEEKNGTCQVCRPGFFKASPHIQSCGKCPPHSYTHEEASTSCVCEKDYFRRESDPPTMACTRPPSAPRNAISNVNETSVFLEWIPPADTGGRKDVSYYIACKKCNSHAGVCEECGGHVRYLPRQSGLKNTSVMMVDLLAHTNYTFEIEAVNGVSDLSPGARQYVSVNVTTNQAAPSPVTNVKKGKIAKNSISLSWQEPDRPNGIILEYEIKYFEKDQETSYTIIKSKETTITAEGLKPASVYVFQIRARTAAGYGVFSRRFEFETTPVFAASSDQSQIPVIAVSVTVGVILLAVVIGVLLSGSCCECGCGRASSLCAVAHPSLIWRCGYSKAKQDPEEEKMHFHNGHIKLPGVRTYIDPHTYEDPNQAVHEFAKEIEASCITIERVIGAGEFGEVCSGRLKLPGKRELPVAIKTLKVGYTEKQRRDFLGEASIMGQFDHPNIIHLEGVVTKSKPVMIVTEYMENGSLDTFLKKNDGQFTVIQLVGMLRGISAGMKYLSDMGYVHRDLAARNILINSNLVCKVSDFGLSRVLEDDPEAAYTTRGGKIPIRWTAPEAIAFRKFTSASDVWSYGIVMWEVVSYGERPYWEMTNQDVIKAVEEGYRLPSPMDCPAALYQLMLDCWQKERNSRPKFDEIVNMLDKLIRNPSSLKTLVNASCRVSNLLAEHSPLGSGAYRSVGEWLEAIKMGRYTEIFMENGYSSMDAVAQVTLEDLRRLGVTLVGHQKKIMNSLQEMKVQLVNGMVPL

[4] = target: T4, MAP4K3 (Homo sapiens, UniProt Q8IVH8); experiment: KINOMEscan panel screen; type: binding; conditions: read-out: Percent Control(%)
T4 construct: purchased DiscoveRx KINOMEscan (Ambit Biosciences)

[5] = target: T5, ALK (Homo sapiens, UniProt Q9UM73); experiment: KINOMEscan panel screen; type: binding; conditions: read-out: Percent Control(%)
T5 construct: purchased DiscoveRx KINOMEscan (Ambit Biosciences)

[6] = target: T6, TIE1 (Homo sapiens, UniProt P35590); experiment: KINOMEscan panel screen; type: binding; conditions: read-out: Percent Control(%)
T6 construct: purchased DiscoveRx KINOMEscan (Ambit Biosciences)

[7] = target: T7, RIPK4 (Homo sapiens, UniProt P57078); experiment: KINOMEscan panel screen; type: binding; conditions: read-out: Percent Control(%)
T7 construct: purchased DiscoveRx KINOMEscan (Ambit Biosciences)

[8] = target: T8, PAK3 (Homo sapiens, UniProt O75914); experiment: KINOMEscan panel screen; type: binding; conditions: read-out: Percent Control(%)
T8 construct: purchased DiscoveRx KINOMEscan (Ambit Biosciences)

[9] = target: LCK (Homo sapiens, UniProt P06239); experiment: KINOMEscan panel screen; type: binding; conditions: read-out: Percent Control(%)
[10] = target: ERN1 (Homo sapiens, UniProt O75460); experiment: KINOMEscan panel screen; type: binding; conditions: read-out: Percent Control(%)
[11] = target: T9, PIP5K2C (Homo sapiens, UniProt Q8TBX8); experiment: KINOMEscan panel screen; type: binding; conditions: read-out: Percent Control(%)
T9 construct: purchased DiscoveRx KINOMEscan (Ambit Biosciences)

[12] = target: T10, TGFBR1 (Homo sapiens, UniProt P36897); experiment: KINOMEscan panel screen; type: binding; conditions: read-out: Percent Control(%)
T10 construct: DNA tag (qPCR read-out); purchased Ambit Biosciences (KINOMEscan service)

[13] = target: T11, TGFBR2 (Homo sapiens, UniProt P37173); experiment: KINOMEscan panel screen; type: binding; conditions: read-out: Percent Control(%)
T11 construct: purchased DiscoveRx KINOMEscan (Ambit Biosciences)

[14] = target: T12, MAST1 (Homo sapiens, UniProt Q9Y2H9); experiment: KINOMEscan panel screen; type: binding; conditions: read-out: Percent Control(%)
T12 construct: purchased DiscoveRx KINOMEscan (Ambit Biosciences)

[15] = target: T13, CDKL2 (Homo sapiens, UniProt Q92772); experiment: KINOMEscan panel screen; type: binding; conditions: read-out: Percent Control(%)
T13 construct: purchased DiscoveRx KINOMEscan (Ambit Biosciences)
T13 sequence (Q92772 whole entry): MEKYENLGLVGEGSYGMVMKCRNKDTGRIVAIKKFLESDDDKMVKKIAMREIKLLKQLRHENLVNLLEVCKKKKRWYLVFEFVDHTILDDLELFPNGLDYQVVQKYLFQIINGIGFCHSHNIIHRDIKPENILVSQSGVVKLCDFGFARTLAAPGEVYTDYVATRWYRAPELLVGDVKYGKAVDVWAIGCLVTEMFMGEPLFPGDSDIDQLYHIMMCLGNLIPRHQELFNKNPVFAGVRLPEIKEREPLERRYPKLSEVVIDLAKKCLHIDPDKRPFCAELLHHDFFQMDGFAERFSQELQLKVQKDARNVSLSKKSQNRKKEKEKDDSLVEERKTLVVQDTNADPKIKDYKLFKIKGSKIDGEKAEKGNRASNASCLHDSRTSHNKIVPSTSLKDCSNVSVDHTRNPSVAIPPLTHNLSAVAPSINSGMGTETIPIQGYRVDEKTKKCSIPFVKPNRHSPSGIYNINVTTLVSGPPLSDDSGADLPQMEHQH

[16] = target: T14, PKAC-beta (Homo sapiens, UniProt P22694); experiment: KINOMEscan panel screen; type: binding; conditions: read-out: Percent Control(%)
T14 construct: purchased DiscoveRx KINOMEscan (Ambit Biosciences)

[17] = target: FLT3-ITD (Homo sapiens, UniProt P36888, ITD); experiment: biochemical; type: binding
FLT3-ITD, sequence (P36888 564-993, change not shown): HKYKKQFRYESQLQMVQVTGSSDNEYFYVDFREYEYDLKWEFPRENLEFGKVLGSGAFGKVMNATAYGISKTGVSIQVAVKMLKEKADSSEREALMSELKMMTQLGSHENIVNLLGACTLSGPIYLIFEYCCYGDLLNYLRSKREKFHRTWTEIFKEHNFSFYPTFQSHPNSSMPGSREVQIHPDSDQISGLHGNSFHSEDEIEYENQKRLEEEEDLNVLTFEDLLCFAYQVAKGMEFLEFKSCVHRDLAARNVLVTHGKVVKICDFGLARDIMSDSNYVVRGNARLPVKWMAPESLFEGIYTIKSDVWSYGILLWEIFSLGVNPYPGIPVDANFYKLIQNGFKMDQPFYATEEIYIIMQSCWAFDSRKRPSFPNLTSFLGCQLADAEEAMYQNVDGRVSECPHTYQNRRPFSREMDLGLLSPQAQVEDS

[18] = target: T15, TYK2(JH1domain-catalytic) (Homo sapiens, UniProt P29597); experiment: KINOMEscan panel screen; type: binding; conditions: read-out: Percent Control(%)
T15 construct: TYK2(JH1domain-catalytic); purchased DiscoveRx KINOMEscan (Ambit Biosciences)

[19] = target: T16, SRPK2 (Homo sapiens, UniProt P78362); experiment: KINOMEscan panel screen; type: binding; conditions: read-out: Percent Control(%)
T16 construct: purchased DiscoveRx KINOMEscan (Ambit Biosciences)

[20] = target: T17, LYN (Homo sapiens, UniProt P07948); experiment: KINOMEscan panel screen; type: binding; conditions: read-out: Percent Control(%)
T17 construct: purchased DiscoveRx KINOMEscan (Ambit Biosciences)
T17 sequence (P07948 whole entry): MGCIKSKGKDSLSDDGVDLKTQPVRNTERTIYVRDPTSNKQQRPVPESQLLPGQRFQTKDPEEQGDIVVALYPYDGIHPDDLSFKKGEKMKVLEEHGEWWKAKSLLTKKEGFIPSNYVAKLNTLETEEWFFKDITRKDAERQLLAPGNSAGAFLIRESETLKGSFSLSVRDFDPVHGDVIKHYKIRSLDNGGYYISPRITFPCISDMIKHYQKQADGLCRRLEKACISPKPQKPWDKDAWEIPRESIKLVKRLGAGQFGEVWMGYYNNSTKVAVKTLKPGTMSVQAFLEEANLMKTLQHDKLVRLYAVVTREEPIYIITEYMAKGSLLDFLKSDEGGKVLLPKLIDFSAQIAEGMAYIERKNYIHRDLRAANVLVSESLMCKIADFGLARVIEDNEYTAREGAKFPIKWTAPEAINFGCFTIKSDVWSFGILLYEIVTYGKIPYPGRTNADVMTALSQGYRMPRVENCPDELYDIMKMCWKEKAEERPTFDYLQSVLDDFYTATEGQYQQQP

[21] = target: T18, ROS1 (Homo sapiens, UniProt P08922); experiment: KINOMEscan panel screen; type: binding; conditions: read-out: Percent Control(%)
T18 construct: purchased DiscoveRx KINOMEscan (Ambit Biosciences)

[22] = target: T19, ACVRL1 (Homo sapiens, UniProt P37023); experiment: KINOMEscan panel screen; type: binding; conditions: read-out: Percent Control(%)
T19 construct: purchased DiscoveRx KINOMEscan (Ambit Biosciences)
T19 sequence (P37023 22-503): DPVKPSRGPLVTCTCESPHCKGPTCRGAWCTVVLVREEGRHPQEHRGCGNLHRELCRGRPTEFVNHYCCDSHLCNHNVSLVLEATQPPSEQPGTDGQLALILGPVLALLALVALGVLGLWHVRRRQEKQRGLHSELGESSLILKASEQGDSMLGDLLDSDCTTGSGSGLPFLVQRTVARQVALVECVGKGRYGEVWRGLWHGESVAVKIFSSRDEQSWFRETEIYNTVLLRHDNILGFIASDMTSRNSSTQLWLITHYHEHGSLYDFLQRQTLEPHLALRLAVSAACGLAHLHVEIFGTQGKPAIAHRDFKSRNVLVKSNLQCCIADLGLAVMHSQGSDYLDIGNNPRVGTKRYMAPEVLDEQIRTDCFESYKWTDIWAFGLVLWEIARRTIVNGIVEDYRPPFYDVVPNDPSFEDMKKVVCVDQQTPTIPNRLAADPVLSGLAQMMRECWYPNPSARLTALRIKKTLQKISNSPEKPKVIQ

[23] = target: T20, MET(M1250T) (Homo sapiens, UniProt P08581, M1250T); experiment: KINOMEscan panel screen; type: binding; conditions: read-out: Percent Control(%)
T20 construct: purchased DiscoveRx KINOMEscan (Ambit Biosciences)

[24] = target: T21, PRKCQ (Homo sapiens, UniProt Q04759); experiment: KINOMEscan panel screen; type: binding; conditions: read-out: Percent Control(%)
T21 construct: purchased DiscoveRx KINOMEscan (Ambit Biosciences)

[25] = target: T22, MST4 (Homo sapiens, UniProt Q9P289); experiment: KINOMEscan panel screen; type: binding; conditions: read-out: Percent Control(%)
T22 construct: purchased DiscoveRx KINOMEscan (Ambit Biosciences)

[26] = system: THP-1; experiment: MTT cell viability assay; conditions: Homo sapiens, THP-1, 72 h
[27] = target: T23, SRPK3 (Homo sapiens, UniProt Q9UPE1); experiment: KINOMEscan panel screen; type: binding; conditions: read-out: Percent Control(%)
T23 construct: purchased DiscoveRx KINOMEscan (Ambit Biosciences)

[28] = system: zebrafish embryos; experiment: Zebrafish development experiment (posterior axis formation); type: in vivo; conditions: added at 4hpf, observed after 24hpf
[29] = target: T24, RSK3(Kin.Dom.1-N-terminal) (Homo sapiens, UniProt Q15349); experiment: KINOMEscan panel screen; type: binding; conditions: read-out: Percent Control(%)
T24 construct: RSK3(Kin.Dom.1-N-terminal); purchased DiscoveRx KINOMEscan (Ambit Biosciences)

[30] = target: T25, MEK3 (Homo sapiens, UniProt P46734); experiment: KINOMEscan panel screen; type: binding; conditions: read-out: Percent Control(%)
T25 construct: purchased DiscoveRx KINOMEscan (Ambit Biosciences)
T25 sequence (P46734 whole entry): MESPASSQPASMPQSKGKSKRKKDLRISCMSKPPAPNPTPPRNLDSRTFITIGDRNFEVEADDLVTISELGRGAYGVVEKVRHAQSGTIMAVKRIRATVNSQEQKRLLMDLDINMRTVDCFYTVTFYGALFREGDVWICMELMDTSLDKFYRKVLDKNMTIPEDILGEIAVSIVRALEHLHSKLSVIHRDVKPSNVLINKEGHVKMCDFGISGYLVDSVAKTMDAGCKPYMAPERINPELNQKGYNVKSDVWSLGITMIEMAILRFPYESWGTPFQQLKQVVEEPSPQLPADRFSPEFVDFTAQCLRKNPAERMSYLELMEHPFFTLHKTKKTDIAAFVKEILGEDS

[31] = target: T26, ERK3 (Homo sapiens, UniProt Q16659); experiment: KINOMEscan panel screen; type: binding; conditions: read-out: Percent Control(%)
T26 construct: purchased DiscoveRx KINOMEscan (Ambit Biosciences)

[32] = target: T27, TTK (Homo sapiens, UniProt P33981); experiment: KINOMEscan panel screen; type: binding; conditions: read-out: Percent Control(%)
T27 construct: purchased DiscoveRx KINOMEscan (Ambit Biosciences)

[33] = target: T28, PIK3CA(E545K) (Homo sapiens, UniProt P42336, E545K); experiment: KINOMEscan panel screen; type: binding; conditions: read-out: Percent Control(%)
T28 construct: purchased DiscoveRx KINOMEscan (Ambit Biosciences)

[34] = target: T29, SNARK (Homo sapiens, UniProt Q9H093); experiment: KINOMEscan panel screen; type: binding; conditions: read-out: Percent Control(%)
T29 construct: purchased DiscoveRx KINOMEscan (Ambit Biosciences)
T29 sequence (Q9H093 whole entry): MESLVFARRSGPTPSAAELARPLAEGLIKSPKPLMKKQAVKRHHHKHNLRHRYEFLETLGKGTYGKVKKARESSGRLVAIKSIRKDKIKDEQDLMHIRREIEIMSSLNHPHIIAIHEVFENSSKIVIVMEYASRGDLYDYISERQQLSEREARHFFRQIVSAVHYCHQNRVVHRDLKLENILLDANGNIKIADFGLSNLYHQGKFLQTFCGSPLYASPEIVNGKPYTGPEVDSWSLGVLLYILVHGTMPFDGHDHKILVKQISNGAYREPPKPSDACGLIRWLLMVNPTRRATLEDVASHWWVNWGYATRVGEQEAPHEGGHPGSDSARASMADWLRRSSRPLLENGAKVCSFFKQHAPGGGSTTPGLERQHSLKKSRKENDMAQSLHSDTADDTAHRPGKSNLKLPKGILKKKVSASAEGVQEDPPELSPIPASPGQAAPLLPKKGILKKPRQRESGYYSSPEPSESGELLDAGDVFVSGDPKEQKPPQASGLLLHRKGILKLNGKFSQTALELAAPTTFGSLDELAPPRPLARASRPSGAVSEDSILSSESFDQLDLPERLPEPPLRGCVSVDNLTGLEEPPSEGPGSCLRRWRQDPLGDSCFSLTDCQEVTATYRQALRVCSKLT

[35] = target: T30, MTOR (Homo sapiens, UniProt P42345); experiment: KINOMEscan panel screen; type: binding; conditions: read-out: Percent Control(%)
T30 construct: purchased DiscoveRx KINOMEscan (Ambit Biosciences)

[36] = system: wnt8.1 RNA injected zebrafish embryos; experiment: Zebrafish wnt8.1 rescue experiment; type: in vivo; conditions: 10 μM after microinjection of wnt8.1 RNA
[37] = target: T31, RSK1(Kin.Dom.1-N-terminal) (Homo sapiens, UniProt Q15418); experiment: KINOMEscan panel screen; type: binding; conditions: read-out: Percent Control(%)
T31 construct: RSK1(Kin.Dom.1-N-terminal); purchased DiscoveRx KINOMEscan (Ambit Biosciences)
T31 sequence (Q15418 62-321 limits assumed): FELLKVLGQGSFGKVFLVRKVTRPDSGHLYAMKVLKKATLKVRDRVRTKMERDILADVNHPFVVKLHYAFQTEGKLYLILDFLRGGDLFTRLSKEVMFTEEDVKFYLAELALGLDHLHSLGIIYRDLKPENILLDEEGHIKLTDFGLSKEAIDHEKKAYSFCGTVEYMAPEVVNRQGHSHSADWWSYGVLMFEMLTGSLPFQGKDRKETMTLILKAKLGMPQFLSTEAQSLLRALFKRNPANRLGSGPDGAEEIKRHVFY

[38] = target: T32, MAP3K15 (Homo sapiens, UniProt Q6ZN16); experiment: KINOMEscan panel screen; type: binding; conditions: read-out: Percent Control(%)
T32 construct: purchased DiscoveRx KINOMEscan (Ambit Biosciences)

[39] = target: T33, RIPK5 (Homo sapiens, UniProt Q6XUX3); experiment: KINOMEscan panel screen; type: binding; conditions: read-out: Percent Control(%)
T33 construct: purchased DiscoveRx KINOMEscan (Ambit Biosciences)

[40] = target: T34, PRKG1 (Homo sapiens, UniProt Q13976); experiment: KINOMEscan panel screen; type: binding; conditions: read-out: Percent Control(%)
T34 construct: purchased DiscoveRx KINOMEscan (Ambit Biosciences)
T34 sequence (Q13976 whole entry): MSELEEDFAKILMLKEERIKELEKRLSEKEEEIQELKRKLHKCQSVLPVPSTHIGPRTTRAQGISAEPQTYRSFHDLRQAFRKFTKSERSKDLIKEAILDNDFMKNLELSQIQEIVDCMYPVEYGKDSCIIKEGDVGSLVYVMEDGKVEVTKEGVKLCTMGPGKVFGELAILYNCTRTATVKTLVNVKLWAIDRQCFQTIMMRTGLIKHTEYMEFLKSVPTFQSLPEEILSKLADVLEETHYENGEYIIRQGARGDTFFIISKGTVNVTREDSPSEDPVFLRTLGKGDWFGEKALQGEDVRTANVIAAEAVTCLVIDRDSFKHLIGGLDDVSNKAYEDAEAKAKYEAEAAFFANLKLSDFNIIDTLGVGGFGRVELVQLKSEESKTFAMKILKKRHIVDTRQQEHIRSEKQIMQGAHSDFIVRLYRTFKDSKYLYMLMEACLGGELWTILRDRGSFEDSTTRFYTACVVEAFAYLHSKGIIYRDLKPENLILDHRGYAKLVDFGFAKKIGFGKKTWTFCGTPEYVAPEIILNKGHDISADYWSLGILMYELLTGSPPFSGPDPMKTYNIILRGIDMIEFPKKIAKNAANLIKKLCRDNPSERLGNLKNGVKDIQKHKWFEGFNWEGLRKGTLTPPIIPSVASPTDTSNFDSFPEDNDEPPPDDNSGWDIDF

[41] = system: SU-DHL-6; experiment: MTT cell viability assay; conditions: Homo sapiens, SU-DHL-6, 72 h

For `CC(C)(C)c1cc(NC(=O)Nc2ccc(Oc3ncnc4[nH]ncc34)c(F)c2)no1` [SKLB-677, 1-(4-(1H-pyrazolo[3,4-d]pyrimidin-4-yloxy)-3-fluorophenyl)-3-(5-tert-butylisoxazol-3-yl)urea], the remaining binding at 10 µM [1] was 1.9%, the remaining binding at 10 µM [2] was 100% and the remaining binding at 10 µM [3] was 0.7%. The remaining binding at 10 µM [4] was 3.2%, the remaining binding at 10 µM [5] was 4.8% and the remaining binding at 10 µM [6] was 8.7%. For the same compound, the remaining binding at 10 µM [7] was 0.85%, the remaining binding at 10 µM [8] was 6.4% and the remaining binding at 10 µM [9] was 0.3%. It also gave a remaining binding at 10 µM [10] of 100%, a remaining binding at 10 µM [11] of 100% and a remaining binding at 10 µM [12] of 100%. It also gave a remaining binding at 10 µM [13] of 100%, a remaining binding at 10 µM [14] of 100% and a remaining binding at 10 µM [15] of 1.7%. For the same compound, the remaining binding at 10 µM [16] was 88%, the Kd [17] was 0.0013 µM and the remaining binding at 10 µM [18] was 44%. For the same compound, the remaining binding at 10 µM [19] was 100%, the remaining binding at 10 µM [20] was 2% and the remaining binding at 10 µM [21] was 0.1%. The remaining binding at 10 µM [22] was 91%, the remaining binding at 10 µM [23] was 2.2% and the remaining binding at 10 µM [24] was 50%. For the same compound, the remaining binding at 10 µM [25] was 24%, the IC50 [26] was greater than 10 µM and the remaining binding at 10 µM [27] was 71%. For the same compound, the embryo dorsalization [28] was “led to embryo dorsalization in a dose-dependent manner”, the remaining binding at 10 µM [29] was 41% and the remaining binding at 10 µM [30] was 63%. The remaining binding at 10 µM [31] was 79%, the remaining binding at 10 µM [32] was 17% and the remaining binding at 10 µM [33] was 100%. The remaining binding at 10 µM [34] was 66%, the remaining binding at 10 µM [35] was 100% and the embryos unaffected [36] was 65%. The “embryos with mild or moderate posteriorized phenotypes” value [36] was 35%, the remaining binding at 10 µM [37] was 100% and the remaining binding at 10 µM [38] was 100%. The remaining binding at 10 µM [39] was 98%, the remaining binding at 10 µM [40] was 86% and the IC50 [41] was 7.78 µM.
